These results are taken from the SangsterLogP compilation.

A short description of the series: method code SF-AS, from PMID: 1438511.

In turn, `c1ccc(OCc2cccc(CN3CCCOC3)c2)cc1` gave a logD (pH 8.0) of 2.75.
With `c1ccc(OCc2cccc(CN3CCCCCC3)c2)cc1`, the logP was 2.87.

What is called logD is lipophilicity at a set pH, counting ionised and neutral species. A word on the logP: it is a log measure of how a compound divides between an organic and an aqueous phase. A high value points to a more lipophilic compound.
